Patent publication US11912701B2, “Protein kinase inhibitors for promoting liver regeneration or reducing or preventing hepatocyte death” (HEPAREGENIX GMBH, priority 2018, dated 2024)

Experiments:
MKK4 [1] = target: T1, MKK4 (Homo sapiens, UniProt P45985); test: KINOMEscan competition binding assay, MKK4; conditions: residual percent of control binding (PoC) at 100 nM
T1 construct: S84/D399; host or cells: HEK-293
T1 sequence (P45985 84-399): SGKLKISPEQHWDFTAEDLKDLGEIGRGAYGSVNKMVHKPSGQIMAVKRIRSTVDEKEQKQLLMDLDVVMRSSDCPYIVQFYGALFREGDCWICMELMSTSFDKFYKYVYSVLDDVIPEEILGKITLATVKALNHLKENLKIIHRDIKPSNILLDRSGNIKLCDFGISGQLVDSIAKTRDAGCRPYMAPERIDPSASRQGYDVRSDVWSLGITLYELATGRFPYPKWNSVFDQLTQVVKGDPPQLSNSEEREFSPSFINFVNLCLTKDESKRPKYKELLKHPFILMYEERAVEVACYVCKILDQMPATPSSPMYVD
In short: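 KINOMEscan competition of compound versus immobilized ligand for DNA-tagged MKK4 expressed in HEK-293 cells. Bound kinase was quantified by qPCR after elution.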

BRaf [2] = target: T2, BRaf (Homo sapiens, UniProt P15056); test: KINOMEscan competition binding assay, BRaf; conditions: ratio PoC (off-target)/PoC (MKK4)
T2 construct: purchased ProQinase GmbH, Freiburg, Germany (33PanQinase Assay Service)
In short: (§1)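 DNA-tagged kinases expressed in HEK-293 cells compete between immobilized ligand on blocked beads and test compound at 100 nM; kinase retained on beads quantified by qPCR of the tag.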

MKK4 [3] = target: T3, MKK4 (Homo sapiens, UniProt P45985); test: 33PanQinase enzyme assay, MKK4; assay type: biochemical; conditions: assay 'IC50'; read-out: Potency MKK4 (IC50)
T3 construct: purchased ProQinase GmbH, Freiburg, Germany (33PanQinase Assay Service)
T3 sequence (P45985 1-399): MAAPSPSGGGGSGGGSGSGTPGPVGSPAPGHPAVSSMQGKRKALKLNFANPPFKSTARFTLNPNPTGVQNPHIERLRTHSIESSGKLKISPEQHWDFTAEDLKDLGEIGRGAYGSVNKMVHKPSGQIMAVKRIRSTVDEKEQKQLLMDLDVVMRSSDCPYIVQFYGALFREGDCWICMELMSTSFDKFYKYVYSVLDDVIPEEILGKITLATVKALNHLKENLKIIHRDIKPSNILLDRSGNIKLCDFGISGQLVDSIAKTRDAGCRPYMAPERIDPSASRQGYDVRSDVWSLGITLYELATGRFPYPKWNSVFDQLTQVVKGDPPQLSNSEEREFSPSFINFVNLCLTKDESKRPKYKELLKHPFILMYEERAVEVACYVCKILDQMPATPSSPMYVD
In short: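 Radiometric 33PanQinase assay: kinase, substrate, ATP and compound in standard buffer, 60 min at 30 °C; 33Pi incorporation read by scintillation counting.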

BRaf [4] = target: T2, BRaf; test: 33PanQinase enzyme assay, BRaf; assay type: biochemical; conditions: ratio IC50(BRaf)/IC50(MKK4)
In short: (§2)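 Radiometric 33PanQinase format: kinase with substrate, ATP and compound (added in 10% DMSO stock) incubated 60 min at 30° C, stopped with 2% H3PO4, ^33Pi incorporation counted by scintillation. Single-concentration data given as % residual activity; IC50 by least-squares fit, with selectivity as IC50(off-target)/IC50(MKK4).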

MKK7 [5] = target: T4, MKK7 (Homo sapiens, UniProt O14733); test: KINOMEscan competition binding assay, MKK7; parameters: M1/R419; host or cells: HEK-293; conditions: ratio PoC (off-target)/PoC (MKK4)
T4 sequence (O14733 1-419): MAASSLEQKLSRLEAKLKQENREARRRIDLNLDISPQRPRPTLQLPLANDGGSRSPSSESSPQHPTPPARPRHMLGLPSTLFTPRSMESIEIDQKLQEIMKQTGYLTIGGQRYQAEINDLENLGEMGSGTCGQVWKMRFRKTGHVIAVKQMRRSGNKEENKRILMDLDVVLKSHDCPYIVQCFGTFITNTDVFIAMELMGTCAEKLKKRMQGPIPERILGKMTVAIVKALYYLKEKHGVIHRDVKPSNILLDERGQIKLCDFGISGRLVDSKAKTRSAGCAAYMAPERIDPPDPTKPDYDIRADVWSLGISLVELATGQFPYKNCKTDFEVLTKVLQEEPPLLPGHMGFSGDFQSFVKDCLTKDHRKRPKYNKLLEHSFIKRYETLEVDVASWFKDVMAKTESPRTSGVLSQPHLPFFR
In short: as §1

JNK1 [6] = target: T5, JNK1 (Homo sapiens, UniProt P45983); test: KINOMEscan competition binding assay, JNK1; parameters: M1/Q384; host or cells: HEK-293; conditions: ratio PoC (off-target)/PoC (MKK4)
In short: as §1
Target sequence in this assay (P45983 1-384 isoform P45983-2): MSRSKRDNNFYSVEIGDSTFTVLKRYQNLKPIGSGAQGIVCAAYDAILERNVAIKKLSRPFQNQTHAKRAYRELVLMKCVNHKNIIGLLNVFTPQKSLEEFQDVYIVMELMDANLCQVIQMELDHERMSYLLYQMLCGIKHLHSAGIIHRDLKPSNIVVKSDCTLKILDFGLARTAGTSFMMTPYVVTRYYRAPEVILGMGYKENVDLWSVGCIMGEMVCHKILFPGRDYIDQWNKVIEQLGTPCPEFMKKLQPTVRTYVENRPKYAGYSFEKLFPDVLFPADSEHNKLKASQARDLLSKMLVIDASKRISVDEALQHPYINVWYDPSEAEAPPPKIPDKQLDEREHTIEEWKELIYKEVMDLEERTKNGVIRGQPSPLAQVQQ

JNK1 [7] = target: T5, JNK1; test: 33PanQinase enzyme assay, JNK1; assay type: biochemical; parameters: purchased ProQinase GmbH, Freiburg, Germany (33PanQinase Assay Service); conditions: ratio IC50(JNK1)/IC50(MKK4)
In short: as §2
Target sequence in this assay (P45983 whole entry): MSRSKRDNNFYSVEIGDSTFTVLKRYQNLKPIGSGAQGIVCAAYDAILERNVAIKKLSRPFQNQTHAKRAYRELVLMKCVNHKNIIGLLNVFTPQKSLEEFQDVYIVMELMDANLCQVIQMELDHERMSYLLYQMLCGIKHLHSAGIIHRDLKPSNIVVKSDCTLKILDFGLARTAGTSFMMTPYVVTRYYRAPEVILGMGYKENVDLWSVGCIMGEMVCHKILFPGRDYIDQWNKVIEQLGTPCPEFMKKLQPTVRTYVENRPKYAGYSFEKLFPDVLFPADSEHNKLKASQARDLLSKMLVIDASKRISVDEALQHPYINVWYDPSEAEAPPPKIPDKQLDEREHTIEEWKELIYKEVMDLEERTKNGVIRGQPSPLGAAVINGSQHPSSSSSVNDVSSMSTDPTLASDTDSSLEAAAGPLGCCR

MKK7 [8] = target: T4, MKK7; test: 33PanQinase enzyme assay, MKK7; assay type: biochemical; parameters: purchased ProQinase GmbH, Freiburg, Germany (33PanQinase Assay Service); conditions: ratio IC50(MKK7)/IC50(MKK4)
In short: as §2

T2 sequence (P15056 whole entry, species assumed): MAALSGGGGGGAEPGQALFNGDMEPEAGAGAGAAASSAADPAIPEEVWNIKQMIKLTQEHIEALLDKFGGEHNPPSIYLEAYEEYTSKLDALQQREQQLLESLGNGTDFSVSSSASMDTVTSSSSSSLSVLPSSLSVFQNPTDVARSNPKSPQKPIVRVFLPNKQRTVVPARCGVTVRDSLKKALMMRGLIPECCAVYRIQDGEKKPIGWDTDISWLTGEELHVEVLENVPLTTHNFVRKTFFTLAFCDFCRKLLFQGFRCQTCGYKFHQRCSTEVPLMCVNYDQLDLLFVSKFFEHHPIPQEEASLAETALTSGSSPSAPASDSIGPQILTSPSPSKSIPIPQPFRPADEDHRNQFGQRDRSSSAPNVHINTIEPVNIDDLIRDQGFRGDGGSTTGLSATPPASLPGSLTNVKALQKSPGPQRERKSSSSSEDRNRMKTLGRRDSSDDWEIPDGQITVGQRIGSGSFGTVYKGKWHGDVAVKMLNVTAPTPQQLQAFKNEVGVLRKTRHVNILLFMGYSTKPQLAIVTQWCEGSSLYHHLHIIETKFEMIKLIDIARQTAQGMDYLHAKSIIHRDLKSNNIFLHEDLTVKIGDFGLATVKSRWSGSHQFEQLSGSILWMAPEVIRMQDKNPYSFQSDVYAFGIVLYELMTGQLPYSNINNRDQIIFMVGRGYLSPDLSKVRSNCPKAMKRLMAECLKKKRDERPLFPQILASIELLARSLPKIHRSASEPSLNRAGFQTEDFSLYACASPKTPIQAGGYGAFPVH

## COc1ccc(-c2cnc3[nH]cc(C(=O)c4ccc(F)c(NS(=O)(=O)CCC(F)(F)F)c4F)c3c2)cn1 [Example 158, N-(2,6-difluoro-3-(5-(6-methoxypyridin-3-yl)-1H-pyrrolo[2,3-b]pyridine-3-carbonyl)phenyl)-3,3,3-trifluoropropane-1-sulfonamide]
MKK4 [1]
  MKK4 [% Ctrl @ 100 nM: +++ (PoC < 1)
BRaf [2]
  selectivity based on % Ctrl @100 nM vs. Braf: +++ (Ratio > 100)
MKK4 [3]
  IC50: < 100 nM
BRaf [4]
  Selectivity Braf, IC50(off-target)/IC50(MKK4): ++ (100 ≥ IC50(off-target)/IC50(MKK4) > 10)
MKK7 [5]
  selectivity based on % Ctrl @100 nM vs. MKK7: +++ (Ratio > 100)
JNK1 [6]
  selectivity based on % Ctrl @100 nM vs. JNK1: +++ (Ratio > 100)
JNK1 [7]
  Selectivity JNK1, IC50(off-target)/IC50(MKK4): +++ (IC50(off-target)/IC50(MKK4) > 100)
MKK7 [8]
  Selectivity IVIKK7, IC50(off-target)/IC50(MKK4): +++ (IC50(off-target)/IC50(MKK4) > 100)

## CCCS(=O)(=O)Nc1c(F)ccc(C(=O)c2c[nH]c3ncc(-c4ccc(C5CC5)nc4)cc23)c1F [Example 159, N-(3-(5-(6-cyclopropylpyridin-3-yl)-1H-pyrrolo[2,3-b]pyridine-3-carbonyl)-2,6-difluorophenyl)propane-1-sulfonamide]
MKK4 [1]
  MKK4 [% Ctrl @ 100 nM: +++ (PoC < 1)
BRaf [2]
  selectivity based on % Ctrl @100 nM vs. Braf: +++ (Ratio > 100)
MKK4 [3]
  IC50: < 100 nM
BRaf [4]
  Selectivity Braf, IC50(off-target)/IC50(MKK4): ++ (100 ≥ IC50(off-target)/IC50(MKK4) > 10)
MKK7 [5]
  selectivity based on % Ctrl @100 nM vs. MKK7: +++ (Ratio > 100)
JNK1 [6]
  selectivity based on % Ctrl @100 nM vs. JNK1: +++ (Ratio > 100)
JNK1 [7]
  Selectivity JNK1, IC50(off-target)/IC50(MKK4): +++ (IC50(off-target)/IC50(MKK4) > 100)
MKK7 [8]
  Selectivity IVIKK7, IC50(off-target)/IC50(MKK4): +++ (IC50(off-target)/IC50(MKK4) > 100)

## CCCS(=O)(=O)Nc1c(F)ccc(C(=O)c2c[nH]c3ncc(-c4ccc(NC)nc4)cc23)c1F [Example 160, N-(2,6-difluoro-3-(5-(6-(methylamino)pyridin-3-yl)-1H-pyrrolo[2,3-b]pyridine-3-carbonyl)phenyl)propane-1-sulfonamide]
MKK4 [1]
  MKK4 [% Ctrl @ 100 nM: +++ (PoC < 1)
BRaf [2]
  selectivity based on % Ctrl @100 nM vs. Braf: +++ (Ratio > 100)
MKK4 [3]
  IC50: < 100 nM
BRaf [4]
  Selectivity Braf, IC50(off-target)/IC50(MKK4): ++ (100 ≥ IC50(off-target)/IC50(MKK4) > 10)
MKK7 [5]
  selectivity based on % Ctrl @100 nM vs. MKK7: +++ (Ratio > 100)
JNK1 [6]
  selectivity based on % Ctrl @100 nM vs. JNK1: +++ (Ratio > 100)
JNK1 [7]
  Selectivity JNK1, IC50(off-target)/IC50(MKK4): ++ (100 ≥ IC50(off-target)/IC50(MKK4) > 10)
MKK7 [8]
  Selectivity IVIKK7, IC50(off-target)/IC50(MKK4): +++ (IC50(off-target)/IC50(MKK4) > 100)

## CCCS(=O)(=O)Nc1c(F)ccc(C(=O)c2c[nH]c3ncc(-c4ccc(N(C)C)nc4)cc23)c1F [Example 161, N-(3-(5-(6-(dimethylamino)pyridin-3-yl)-1H-pyrrolo[2,3-b]pyridine-3-carbonyl)-2,6-difluorophenyl)propane-1-sulfonamide]
MKK4 [1]
  MKK4 [% Ctrl @ 100 nM: +++ (PoC < 1)
BRaf [2]
  selectivity based on % Ctrl @100 nM vs. Braf: +++ (Ratio > 100)
MKK4 [3]
  IC50: < 100 nM
BRaf [4]
  Selectivity Braf, IC50(off-target)/IC50(MKK4): ++ (100 ≥ IC50(off-target)/IC50(MKK4) > 10)
MKK7 [5]
  selectivity based on % Ctrl @100 nM vs. MKK7: +++ (Ratio > 100)
JNK1 [6]
  selectivity based on % Ctrl @100 nM vs. JNK1: +++ (Ratio > 100)
JNK1 [7]
  Selectivity JNK1, IC50(off-target)/IC50(MKK4): ++ (100 ≥ IC50(off-target)/IC50(MKK4) > 10)
MKK7 [8]
  Selectivity IVIKK7, IC50(off-target)/IC50(MKK4): +++ (IC50(off-target)/IC50(MKK4) > 100)

## CCCS(=O)(=O)Nc1c(F)ccc(C(=O)c2c[nH]c3ncc(-c4ccc(N5CCC5)nc4)cc23)c1F [Example 162, N-(3-(5-(6-(azetidin-1-yl)pyridin-3-yl)-1H-pyrrolo[2,3-b]pyridine-3-carbonyl)-2,6-difluorophenyl)propane-1-sulfonamide]
MKK4 [1]
  MKK4 [% Ctrl @ 100 nM: +++ (PoC < 1)
BRaf [2]
  selectivity based on % Ctrl @100 nM vs. Braf: +++ (Ratio > 100)
MKK4 [3]
  IC50: 100 to 1000 nM
BRaf [4]
  Selectivity Braf, IC50(off-target)/IC50(MKK4): ++ (100 ≥ IC50(off-target)/IC50(MKK4) > 10)
MKK7 [5]
  selectivity based on % Ctrl @100 nM vs. MKK7: +++ (Ratio > 100)
JNK1 [6]
  selectivity based on % Ctrl @100 nM vs. JNK1: +++ (Ratio > 100)
JNK1 [7]
  Selectivity JNK1, IC50(off-target)/IC50(MKK4): ++ (100 ≥ IC50(off-target)/IC50(MKK4) > 10)
MKK7 [8]
  Selectivity IVIKK7, IC50(off-target)/IC50(MKK4): +++ (IC50(off-target)/IC50(MKK4) > 100)

## C=Cc1ccc(-c2cnc3[nH]cc(C(=O)c4ccc(F)c(NS(=O)(=O)CCC)c4F)c3c2)cn1 [Example 163, N-(2,6-difluoro-3-(5-(6-vinylpyridin-3-yl)-1H-pyrrolo[2,3-b]pyridine-3-carbonyl)phenyl)propane-1-sulfonamide]
MKK4 [1]
  MKK4 [% Ctrl @ 100 nM: +++ (PoC < 1)
BRaf [2]
  selectivity based on % Ctrl @100 nM vs. Braf: +++ (Ratio > 100)
MKK4 [3]
  IC50: < 100 nM
BRaf [4]
  Selectivity Braf, IC50(off-target)/IC50(MKK4): ++ (100 ≥ IC50(off-target)/IC50(MKK4) > 10)
MKK7 [5]
  selectivity based on % Ctrl @100 nM vs. MKK7: +++ (Ratio > 100)
JNK1 [6]
  selectivity based on % Ctrl @100 nM vs. JNK1: +++ (Ratio > 100)
JNK1 [7]
  Selectivity JNK1, IC50(off-target)/IC50(MKK4): ++ (100 ≥ IC50(off-target)/IC50(MKK4) > 10)
MKK7 [8]
  Selectivity IVIKK7, IC50(off-target)/IC50(MKK4): +++ (IC50(off-target)/IC50(MKK4) > 100)

## O=C(c1ccc(F)c(NS(=O)(=O)CCC(F)(F)F)c1F)c1c[nH]c2ncc(-c3cnc(N4CCCC4)nc3)cc12 [Example 179, N-(2,6-difluoro-3-(5-(2-(pyrrolidin-1-yl)pyrimidin-5-yl)-1H-pyrrolo[2,3-b]pyridine-3-carbonyl)phenyl)-3,3,3-trifluoropropane-1-sulfonamide]
MKK4 [1]
  MKK4 [% Ctrl @ 100 nM: +++ (PoC < 1)
BRaf [2]
  selectivity based on % Ctrl @100 nM vs. Braf: +++ (Ratio > 100)
MKK4 [3]
  IC50: < 100 nM
BRaf [4]
  Selectivity Braf, IC50(off-target)/IC50(MKK4): +++ (IC50(off-target)/IC50(MKK4) > 100)
MKK7 [5]
  selectivity based on % Ctrl @100 nM vs. MKK7: +++ (Ratio > 100)
JNK1 [6]
  selectivity based on % Ctrl @100 nM vs. JNK1: +++ (Ratio > 100)
JNK1 [7]
  Selectivity JNK1, IC50(off-target)/IC50(MKK4): +++ (IC50(off-target)/IC50(MKK4) > 100)
MKK7 [8]
  Selectivity IVIKK7, IC50(off-target)/IC50(MKK4): +++ (IC50(off-target)/IC50(MKK4) > 100)
